Results on four molecules are retold here after publication PMC8861431, “Tissue Pharmacokinetic Properties and Bystander Potential of Hypoxia-Activated Prodrug CP-506 by Agent-Based Modelling” (Frontiers in Pharmacology, 2022).

Values joined by “and” are separate entries in the source; they are usually repeats but may differ in a detail not shown here. Equal values may be shown once.

Series [1] concerns POR-R MCLs. In words: Multicellular layer (MCL) flux studies / (pro)drug transport model. It counts as in vitro ADME, human. Conditions: for D s: diffusion coefficient in spheroid: Table 1. The protocol: (§1) The extravascular transport properties of CP-506 and its formed metabolites were investigated using a custom-designed diffusion apparatus, as described previously ([Hicks et al., 2006]). Briefly, MCL cultures were established by seeding 1 x 10^6 POR-R cells onto collagen-coated Millicell-CM inserts for 3 days. Established MCLs were placed at the interface of the two media-filled compartments of diffusion chambers. Diffusion chambers were placed in a 37°C water bath and gassed with a supraoxic (95% O2, 5% CO2) or anoxic (5% CO2, bal N2) mixture for at least 1 h prior to drug addition. Flux was initiated by the addition of internal standard ([^14C]-urea) and 20 µM CP-506 to the donor compartment. Samples (100 µl) were collected from both the donor and receiver compartments for up to 5 h thereafter. At each time point, a 25 µl aliquot was mixed with emulsifier-safe water-accepting scintillant and assayed for radioactivity using a Perkin Elmer Tricard 2910 TR liquid scintillation analyser. The remaining sample was treated with two volumes of ice-cold acetonitrile (containing 2 µM of the relevant deuterated internal standards) and stored at −80°C until LC-MS/MS analysis. Similar experiments were performed using collagen-coated inserts without MCLs to deduce the chemical stability and diffusion coefficient of CP-506 across the bare support membrane.
(§2) Drug transport in MCLs was modelled as a one-dimensional diffusion with reaction across four consecutive compartments (stirred donor, POR-R MCL, collagen-coated teflon support membrane and stirred receiver) using a custom designed MatLab routine ([Foehrenbacher et al., 2013a]). Model parameters were derived by fitting Eq. 1 and Eq. 2 to the measured concentration-time profile of internal standard [^14C]-urea, CP-506, CP-506H and CP-506M in MCL flux studies. The flux of CP-506 and its metabolites across POR-R MCLs was described using Fick’s second law with a reaction term: ∂CeN/∂t=DN∂^2CeN/∂x^2−klossNCeN− φ( kinNCeN− koutNCiN) (1) ∂CiN/∂t= kmet0(N−1)Ci(N−1)+φ(kinNCeN− koutNCiN)−kmet0NCiN (2) where C is the concentration of the diffusing substance at position x and time t in the extracellular (e) or intracellular (i) compartment, D is the diffusion coefficient through either a bare support membrane (without cells) (D suo ) or extracellular space of a POR-R MCL (D MCL ), k loss is the rate constant for first-order loss (instability) in culture medium, k in and k out are the rate constants for transmembrane transport and k met0 is the rate constant for intracellular metabolism and instability for each compound (N). For metabolites, N-1 represents the previous compound from which the current compound is produced by metabolism. Experimental data was fitted iteratively to derive a tissue diffusion coefficient (DMCL) and metabolic scaling factor (φ i ) to restrain parameter estimates from the cellular PK model (Kin, Kout, Kmet0). The diffusion coefficient for CP-506 across the bare support membrane (Dsup) was determined by solving Eq. 1 with a reaction term only for chemical instability. MCL thicknesses were estimated by fitting the measured [^14C]-urea concentrations to those predicted by Eq. 1 and Eq. 2 without instability or metabolism by using the known diffusion coefficient (DMCL) for [^14C]-urea in HCT-116 MCLs ([Wilson et al., 2004]). The diffusion coefficient (DMCL) for CP-506 in POR-R MCLs was then fitted from the measured concentrations in the donor and receiver compartments of supraoxic experiments by assuming one-directional diffusion in the extracellular space. The metabolic scaling factor (φ i ) was then fitted from the measured concentrations in the donor and receiver compartment of anoxic experiments by fixing parameter estimates to the diffusion coefficient (DMCL) from supraoxic experiments.

A short description of series [2]: Diffusion across bare collagen-coated support membrane (without cells). It counts as in vitro ADME. As to conditions: for D M: diffusion coefficient in medium: Table 1. The method, then:
as §1, §2

Series [3] can be described thus: Cellular uptake studies / cellular PK model. It counts as in vitro ADME, human. As to conditions: human, POR-overexpressing HCT-116 (POR-R) cell monolayer; Table S3, cellular PK model (extracellular instability); read-out: T1/2: time required to reduce the concentration to half its initial value (converted). The method, then:
(§3) The intracellular/extracellular partitioning ratio for CP-506 and its major metabolites was determined in monolayer cultures of POR-overexpressing HCT-116 cells, as described previously ([Hong et al., 2018b]). Briefly, cells (5 x 10^5 per well) were seeded with 350 µl medium into 24-well plates and left to attach for 2 h in a humidified 37°C incubator. Stock solutions of CP-506 were diluted and added with 50 µl medium to the well volume to achieve a final concentration of 100 µM. Samples were harvested at various time points for up to 3 h thereafter. Aerobic experiments were performed under standard tissue culture conditions (21% O2), and the anoxic experiments in parallel in a H2/Pd-catalyst-scrubbed anaerobic chamber as described. The well volume was spiked with [^3H]-mannitol immediately before sample harvest and treated with two-volumes of ice-cold acetonitrile containing 2 µM of the deuterated (D8) internal standards for each CP-506, CP-506H and CP-506M. The cell monolayer was then treated with 100 µl of this crashing solution. Samples were stored at −80°C until LC-MS/MS analysis. The cellular exclusion of [^3H]-mannitol was used to account for the contribution of the extracellular medium toward determinations of the intracellular concentration, as described previously ([Foehrenbacher et al., 2013a]).
(§4) An agent-based model (ABM) employing a one-dimensional approximation for monolayers was used to develop a cellular PK model, as described in further detail elsewhere ([Hong et al., 2018b]; [Mao et al., 2018]). The mathematical framework assumes that solute concentrations in the medium are dependent only on the depth (on the z coordinate) and not the lateral position (x,y) so that all cells are exposed to the same concentration of nutrients and drugs within the monolayer culture. Moreover, all cells have the same rate of metabolism and volume growth at any instance with variability allowed in cell volume, rate of cell division and cell death. Monolayer ABM simulations were performed on a desktop Windows PC (Intel core I7 processor) from a Qt (Qt Company, https://www.qt.io/) graphical user interface passing parameters to a DLL built with Fortran95. The monolayer ABM uses a finite difference method to solve reaction-diffusion equations for each compound (N) in the medium and cells. Parameters for the cellular uptake and metabolism were fitted to the concentration-time profiles of CP-506 and its metabolites in monolayer cultures of POR-R cells using a linear (first order) cell transport and metabolism model. Terms for the extracellular instability of CP-506 and its metabolites were set at their respective values in media stability studies, and media diffusion coefficients were estimated from the support membrane diffusion coefficients described below. Experimental data describing the kinetics of CP-506 uptake under aerobic conditions was fitted by adjusting the permeability coefficients kin and kout for each compound. These values were fixed for anoxic experiments to allow for parameter estimation of the rate of intracellular CP-506 metabolism (kmet0) as well as the intracellular/extracellular partitioning ratio (kin and kout) and metabolic instability (kmet0) for its cytotoxic metabolites.

Series [4] relates to POR-overexpressing HCT-116 cells (POR-R) monolayer. Put plainly: Cellular uptake studies / cellular PK model. It counts as in vitro ADME, human. Conditions: for k in: rate constant for transfer from the extracellular to intracellular volume / k out: rate constant for transfer from the intracellular to extracellular volume: Table 1, ABM parameter, estimated from partitioning in monolayer cultures; for kin: rate of transfer from the extracellular to the intracellular compartment / kout: rate of transfer from the intracellular to the extracellular compartment: Table S3, cellular PK model, monolayer ABM fit; for kmet: rate of metabolism to the next metabolite: Table S3, anoxic, CP-506 to CP-506H, CP-506H to CP-506M, CP-506M to CP-506M-Cl2; for Activator k met0: rate constant for the maximum rate of metabolism in POR-R cells under anoxia / kmet: rate of metabolism to the next metabolite: POR-R cells. The protocol:
as §3, §4

The mark [5] stands for this setting: assumed equivalent to CP-506 for the active metabolites.

Consider `CCN1CCN(C(=O)c2cc(N(CCBr)CCOS(C)(=O)=O)c(S(C)(=O)=O)cc2N)CC1` [CP-506M, 2-((4-amino-5-(4-ethylpiperazine-1-carbonyl)-2-(methylsulfonyl)phenyl)(2-bromoethyl)amino)ethyl methanesulfonate], for which the “D s: diffusion coefficient in spheroid” value in series [1] (setting [5]) was 1.93 × 10^−7 ± 1.8 × 10^−8 cm^2s^−1. Further, the “D M: diffusion coefficient in medium” value in series [2] (setting [5]) was 1.32 × 10^−6 ± 0.19 × 10^−6 cm^2s^−1. The half-life at 100 µM in series [3] was 6.6 min. In series [4], the “Activator k met0: rate constant for the maximum rate of metabolism in POR-R cells under anoxia” value (shortened to “Activator k met0: rate constant”) was found to be 0.1 min⁻¹, the “k in: rate constant for transfer from the extracellular to intracellular volume” value (shortened to “k in: rate constant for transfer”) is 0.9 min⁻¹, the “k out: rate constant for transfer from the intracellular to extracellular volume” value (“k out: rate constant for transfer” below) is 0.4 min⁻¹ and the “kin: rate of transfer from the extracellular to the intracellular compartment” value (shortened to “kin: rate of transfer”) was 0.9 min⁻¹. In addition, in series [4], the “kout: rate of transfer from the intracellular to the extracellular compartment” value (shortened to “kout: rate of transfer”) is 0.4 min⁻¹ and the “kmet: rate of metabolism to the next metabolite” value (“kmet: rate of metabolism” below) was 0.1 min⁻¹.
Take `CCN1CCN(C(=O)c2cc(N(CCCl)CCCl)c(S(C)(=O)=O)cc2N)CC1` [CP-506M-Cl2, (2-Amino-5-(bis(2-chloroethyl)amino)-4-(methylsulfonyl)phenyl)(4-ethylpiperazin-1-yl)methanone]: the “D s: diffusion coefficient in spheroid” value in series [1] (setting [5]) is 1.93 × 10^−7 ± 1.8 × 10^−8 cm^2s^−1. Besides, the “D M: diffusion coefficient in medium” value in series [2] (setting [5]) is reported as 1.32 × 10^−6 ± 0.19 × 10^−6 cm^2s^−1. For the same molecule, in series [4] (footnote d: assumed equivalent to the measured metabolites or from published PR-104A estimates), the “Activator k met0: rate constant” value is listed as 0.1 ^d min^−1.
With `CCN1CCN(C(=O)c2cc(N(CCBr)CCOS(C)(=O)=O)c(S(C)(=O)=O)cc2[N+](=O)[O-])CC1` [CP-506, 2-[(2-bromoethyl)-5-[(4-ethyl-1-piperazinyl)carbonyl]-2-(methylsulfonyl)-4-nitroanilino]ethyl methanesulfonate], the “D s: diffusion coefficient in spheroid” value in series [1] (DMCL fitted in POR-R MCLs under supraoxic conditions) was 1.93 × 10^−7 ± 1.8 × 10^−8 cm^2s^−1. Besides, in series [1] (Table S4, anoxia, fixed to the supraoxic value), the “DMCL: diffusion coefficient across POR-R MCLs” value is 1.93 (fixed) x 10^-6 cm^2 s^-1. For the same molecule, in series [1] (Table S4, supraoxia), the “DMCL: diffusion coefficient across POR-R MCLs” value is on record as 1.93 ± 0.01 (6) x 10^-6 cm^2 s^-1. For the same molecule, in series [1] (supraoxic experiments), the “DMCL: diffusion coefficient across POR-R MCLs” value is given as 1.93 ± 0.011 x 10^−7 cm^2s^−1. For the same molecule, the “D M: diffusion coefficient in medium” value in series [2] (Dsup fitted for bare support membranes under supraoxic conditions) is 1.32 × 10^−6 ± 0.19 × 10^−6 cm^2s^−1. Further, the “Dsup: diffusion coefficient across bare support membranes” value in series [2] (anoxic (5% CO2, bal N2)) was 0.717 ± 0.01 x 10^−6 cm^2 s^−1 and 0.717 ± 0.01 (3) x 10^−6 cm^2 s^−1. Further, the “Dsup: diffusion coefficient across bare support membranes” value in series [2] (supraoxic (95% O2, 5% CO2)) was 1.32 ± 0.19 x 10^−6 cm^2 s^−1 and 1.32 ± 0.19 (2) ^b x 10^−6 cm^2 s^−1. The half-life at 100 µM in series [3] was 1200 min. For the same molecule, in series [4], the “Activator k met0: rate constant” value amounted to 0.12 min⁻¹, the “k in: rate constant for transfer” value was 3.7 min⁻¹, the “k out: rate constant for transfer” value is 0.06 min⁻¹ and the “kin: rate of transfer” value amounted to 3.7 min⁻¹. Further, in series [4], the “kout: rate of transfer” value stood at 0.06 min⁻¹ and the “kmet: rate of metabolism” value was 0.12 min⁻¹. In series [4] (anoxic <1 ppm O2, POR-R monolayer), the “Steady-state Ci/Ce ratio (cell uptake)” value worked out at 40 fold.
On to `CCN1CCN(C(=O)c2cc(N(CCBr)CCOS(C)(=O)=O)c(S(C)(=O)=O)cc2NO)CC1` [CP-506H, 2-((2-bromoethyl)(5-(4-ethylpiperazine-1-carbonyl)-4-(hydroxyamino)-2-(methylsulfonyl)phenyl)amino)ethyl methanesulfonate], for which, in series [1] (setting [5]), the “D s: diffusion coefficient in spheroid” value is 1.93 × 10^−7 ± 1.8 × 10^−8 cm^2s^−1. Moreover, in series [2] (setting [5]), the “D M: diffusion coefficient in medium” value was 1.32 × 10^−6 ± 0.19 × 10^−6 cm^2s^−1. In addition, the half-life at 100 µM in series [3] is 12.6 min. In addition, in series [4], the “Activator k met0: rate constant” value amounted to 0.09 min⁻¹, the “k in: rate constant for transfer” value is 0.9 min⁻¹, the “k out: rate constant for transfer” value was 0.25 min⁻¹ and the “kin: rate of transfer” value was determined as 0.9 min⁻¹. Besides, in series [4], the “kout: rate of transfer” value was 0.25 min⁻¹ and the “kmet: rate of metabolism” value was 0.09 min⁻¹.
